Measured values as given in patent publication US9327225B2, “Air cleaning filter and method for manufacturing the same” (LG Electronics Inc., priority 2012, dated 2016).

What was measured:
[1] = test system: escherichia coli (E. coli); assay: Measurement of minimal inhibitory concentration (MIC), turbidity; assay type: cell-based; details: for minimal inhibitory concentration, E. coli: Table 1, 35° C., 14-16 hours; for E. coli MIC value: Table 2; for MIC value of E. coli (wt %): in Table 3
Source text: (§1) 1. Measurement of Minimal Inhibitory Concentration (MIC)
(§2) Polyvinylpyrrolidone iodine (hereinafter, abbreviated as “PVPI”), phthalaldehyde (hereinafter, abbreviated as “PA”), potassium disulphite (hereinafter, abbreviated as “PD”) bronopol, norspermidine (hereinafter, abbreviated as “NS), and the ginseng extract were sequentially diluted, respectively, and prepared with various concentrations to prepare MIC measurement specimens. About 10^4-5 cfu/ml of escherichia coli (E. coli) and about 10^4˜5 cfu/ml of staphylococcus aureus (S. aureus) were added to the MIC measurement specimens, respectively. The specimens were cultured at 35° C. for 14-16 hours and then the turbidity was examined, respectively.
(§3) As a comparative example, specimens to which the E. coli and the S. aureus were added to distilled water, respectively, were cultured at the same time, and the minimal inhibitory concentration of the specimens was measured with reference to specimens subsequent to the culture and the turbidity of the comparative example subsequent to the culture.

[2] = test system: staphylococcus aureus (S. aureus); assay: as above; assay type: cell-based; details: for minimal inhibitory concentration, S. aureus: Table 1, 35° C., 14-16 hours; for S. aureus MIC value: Table 2
Source text: as §1, §2, §3

E. coli [3] = assay: Paper disc experiment (clear zone); assay type: cell-based, Escherichia coli; details: 24 hours, 35° C.
Protocol: (§4) 10^5 cfu/ml of E. coli and S. aureus were sub-cultured in a Mueller Hinton agar, respectively, and then smeared.
(§5) PVPI, ginseng extract, bronopol, PA, NS and PD were introduced to the paper disc, respectively, and left and dried for 5 to 10 minutes. The dried paper disc was put on a culture medium smeared with the E. coli and S. aureus with a sufficient interval, and cultured for 24 hours in a 35° C. incubator and then the size of clear zone was examined and the result is summarized in the following Table 2.

S. aureus = assay: Paper disc experiment (clear zone); assay type: cell-based, Staphylococcus aureus; details: 24 hours, 35° C.
Protocol: as §4, §5

E. coli [4] = assay: Shaking flask method, materials in maintenance medium; assay type: cell-based, Escherichia coli; details: 35° C., concentration of each material (wt %)
Protocol: 3. Experiment Using Shaking Flask Method
A maintenance medium produced with 1% of nutrient broth and 0.5% of NaCl and inoculated with about 10^5 cfu/ml of E. coli was prepared. Materials of PVPI, ginseng extract, bronopol, PA and NS were introduced to the medium, respectively, and reacted at 35° C., and the antibiotic effect was examined using a pour plate method after 6 hours and 24 hours had been passed.
The antibiotic effect in the Table 3 was calculated using the following equation.
Me: Cell number of maintenance medium to which each material is added
Mc: Cell number of maintenance medium to which each material is not added

| Compound | minimal inhibitory concentration, E. coli [1] | E. coli MIC value [1] [% weight %] | MIC value of E. coli (wt %) [1] [% wt %] | minimal inhibitory concentration, S. aureus [2] | S. aureus MIC value [2] [% weight %] | E. coli clear zone (mm) (E. coli [3]) | S. aureus clear zone (mm) (S. aureus) | Antibiotic effect after 6 hours (E. coli [4]) [%] | Antibiotic effect after 24 hours (E. coli [4]) [%] |
| --- | --- | --- | --- | --- | --- | --- | --- | --- | --- |
| O=[N+]([O-])C(Br)(CO)CO [Bronopol, bronopol, reference compound] | Less than 0.0009% weight % | 0.156 | 0.156 | Less than 0.0009% weight % | 0.156 | 10 | 10 | 99.99 | 100 |
| O=S([O-])OS(=O)[O-].[K+].[K+] [PD, potassium disulphite] | 0.156% weight % | 0.156 | – | 0.078% weight % | 0.078 | 12 | 32 | – | – |
| NCCCNCCCN [NS, norspermidine] | 0.312% weight % | 0.312 | 0.312 | 0.078% weight % | 0.078 | 14 | 23 | 99.99 | 100 |
| Polyvinylpyrrolidone iodine [PVPI, reference compound] | 1.875% weight % | 1.875 | 1.875 | 1.875% weight % | 1.875 | 12 | 30 | 99.99 | 100 |
| O=Cc1ccccc1C=O [PA, phthalaldehyde] | 0.156% weight % | < 0.0009 | < 0.0009 | 0.156% weight % | < 0.0009 | 10 | 11 | 99.99 | 100 |
